This note sets out measurements from patent US20100004333A1, “COMPOSITIONS AND METHODS FOR TREATING CARDIOVASCULAR DISORDERS” (priority 2004, published 2010).

Test [1] concerns New Zealand White rabbits. Description: Rabbit aortic balloon-injury model: intimal hyperplasia. The test is classed as in vivo. Particulars: 9 weeks, FIG. 21; for Protection against balloon injury-induced intimal hyperplasia: 0.02% wt/wt in chow, ABI at end of week three. The method, then: Rabbit aortic balloon-injury model. Four groups of male New Zealand White rabbits (1.8-2.2 kg, Merunga Farm, Coffs Harbour, Australia), matched for body weight and baseline plasma cholesterol, were fed 100 g per day of normal chow±1% probucol, 0.02% DTBP, or 0.02% BP (wt/wt) for up to nine weeks. Aortic balloon-injury (ABI) was carried out at the end of week three, resulting in complete endothelial denudation. Harvesting of aortas was done after a further 6 weeks (n=6 per group). Aortic lesion assessment was carried out at the 3rd pair of lumber arteries in NZW rabbits as described in Circulation 2003, 107:2031-2036. Statistics. Data are expressed as mean±SEM. One-way ANOVA and the student-Newman-Keul's test were used to evaluate differences between groups, with P<0.05 considered significant.
Materials and methods were as described in Examples 6 and 7, with the following addition. DTBP-s and STBP were synthesized as described in Example 10. A total of 48 New Zealand White rabbits (1.8-2.2 kg) were used for this example. Rabbits were fed normal chow (100 g/day) without (Ctrl, n=12) or with 0.02% DTBP (wt/wt, n=6), 0.02% STBP (wt/wt, n=7), 0.02% DTBP-s (wt/wt, n=11) or 0.1% DTBP-s (wt/wt, n=7) for 9 weeks. Aortic balloon-injury was carried out at the end of week three.

The subject of test [2] is Heme oxygenase-1 mRNA. The test can be described thus: HO-1 mRNA by real time RT-PCR in cultured rabbit aortic smooth muscle cells. The test is classed as cell-based. The conditions noted are these: α-tocopherol 50 μM, 24 hours; FIG. 20A. Here is the method:
(§1) Materials and methods were principally as described in Examples 6 and 7. Vitamin E (α-tocopherol for cellular studies, α-tocopheryl acetate for in vivo studies) was obtained from Sigma (St. Louis, Mo.). Heme oxygenase-1 mRNA was assessed by real time RT-PCR in rabbit aortic smooth muscle cells cultured for 24 hours in the presence of vehicle (control), probucol (50 μM) or α-tocopherol (50 μM) as described in (Circulation 2004; 110:1855-1860). Re-endothelialization was assessed by Evans blue staining (Circulation 2003; 107:2031-2036) 3 weeks after injury. Intima-to-media ratio of vessels from control rabbits and animals treated with probucol or α-tocopheryl acetate (n=6 per group) was also determined 3 weeks after aortic balloon injury, using 5 serial sections per aortic segment, 100 μm apart.

Test [3] relates to rabbits. The test can be described thus: Rabbit aortic balloon injury, 3 weeks: re-endothelialization (Evans blue) and intima-to-media ratio, vitamin E. The test is classed as in vivo. The conditions noted are these: α-tocopheryl acetate. The method, then: as §1

For the compound `CC(C)(C)c1cc(SSc2cc(C(C)(C)C)c(OC(=O)CCC(=O)O)c(C(C)(C)C)c2)cc(C(C)(C)C)c1O` [DTBP-s, 4-(2,6-di-t-butyl-4-((3,5-di-t-butyl-4-hydroxyphenyl)disulfanyl)phenoxy)-4-oxobutanoic acid], the “Protection against balloon injury-induced intimal hyperplasia” value in test [1] is recorded as “significant protection, albeit less effectively”. The “Protection against intimal hyperplasia: 0.02% DTBP-s compared with 0.1% DTBP-s” value in test [1] (0.1% wt/wt DTBP-s, P<0.05 versus 0.02% DTBP-s) is “less effectively as that seen with STBP (0.02%, to wt/wt) and DTBP-s (0.1%, wt/wt)”.
For the compound `CC(C)(C)c1cc(S[Se]c2cc(C(C)(C)C)c(O)c(C(C)(C)C)c2)cc(C(C)(C)C)c1O` [STBP, 2,6-di-t-butyl-4-(3,5-di-t-butyl-4-hydroxyphenylselanylthio)phenol], the “Protection against balloon injury-induced intimal hyperplasia” value in test [1] was “protected to a comparable extent”.
For `Cc1c(C)c2c(c(C)c1O)CC[C@@](C)(CCC[C@H](C)CCC[C@H](C)CCCC(C)C)O2` [vitamin E, α-tocopherol], in test [2], the “Induction of HO-1 (mRNA) in vascular smooth muscle cells” value is “failed to induce HO-1”. Besides, the “Intimal hyperplasia (intima-to-media ratio)” value in test [3] (3 weeks after aortic balloon injury, FIG. 20C) is “failed to inhibit intimal hyperplasia”. In addition, the “Re-endothelialization (Evans blue)” value in test [3] (3 weeks after injury, FIG. 20B) is recorded as “did not promote re-endothelialization”.
